Here are results for 6 compounds from patent publication US10654896B2, “FoxP3-binding peptides and uses thereof” (FUNDACIÓN PARA LA INVESTIGACIÓN MÉDICA APLICADA, priority 2016, dated 2020).

Where a SMILES comes first, the peptide text is derived from it. [ ]: non-standard residue; d: D form.

Assay [1] concerns the target T1, human FOXP3 (FOXP3-6His) (Homo sapiens, UniProt Q9BZS1).
T1 construct: 6xHis (C); made in house; host or cells: E. coli BL21 (DE3)
T1 sequence (Q9BZS1 1-431): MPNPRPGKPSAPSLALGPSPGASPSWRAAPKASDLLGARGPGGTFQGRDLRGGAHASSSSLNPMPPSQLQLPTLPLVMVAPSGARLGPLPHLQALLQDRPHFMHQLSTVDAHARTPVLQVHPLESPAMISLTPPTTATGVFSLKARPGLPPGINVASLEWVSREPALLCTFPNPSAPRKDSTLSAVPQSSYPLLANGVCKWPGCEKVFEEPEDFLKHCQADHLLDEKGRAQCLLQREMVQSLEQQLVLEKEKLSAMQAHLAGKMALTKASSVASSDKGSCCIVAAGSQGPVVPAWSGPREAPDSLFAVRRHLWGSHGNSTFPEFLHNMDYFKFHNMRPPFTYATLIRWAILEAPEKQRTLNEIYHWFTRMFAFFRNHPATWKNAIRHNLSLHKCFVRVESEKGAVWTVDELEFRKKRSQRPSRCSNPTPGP
The assay can be described thus: Peptide binding to FOXP3 by surface plasmon resonance (SPR). The settings on record: peptides 1-20 μM; ratio to p60 (SEQ ID NO: 1). Summed up: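 C-terminally 6His-tagged human FOXP3, expressed in E. coli BL21(DE3) and Ni-affinity purified, was amine-coupled to a GLM chip (ProteOn XPR36). Peptides at 1–20 μM injected in triplicate in PBS, 0.005% Tween 20, pH 7.4, at 30 μl/min, with interspot reference. Binding given as ratio to reference peptide p60.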
A general note: Surface plasmon resonance follows binding to a sensor surface in real time, without labels.

Assay [2] concerns the target T2, FOXP3/Runx1 heterodimerization (Homo sapiens, UniProt Q9BZS1).
T2 construct: made in house; host or cells: E. coli BL21 (DE3)
T2 sequence (Q9BZS1 1-431): T1 sequence (Q9BZS1 1-431)
Nature of the assay: FOXP3/Runx1 heterodimerization inhibition (Alphascreen). The assay is classed as biochemical. The settings on record: for inhibition at 2.5 µM: read-out: Foxp3-Runx1 Inhibition % inhibition (2.5 μM). From the text:
Plasmid pET20b FOXP3-His was generated to produce the human FOXP3 tagged with 6 histidines at the C terminus of the protein. Briefly, plasmid pDEST15-FOXP3 (provided by Dr. Casal, Madrid, Spain) was used as template to amplify FOXP3 by PCR using the primers Upper FOXP3 Ndel catatgcccaaccccaggc (SEQ ID NO: 55) and Lower FOXP3 […] (SEQ ID NO: 56). The resulting fragment was subcloned in pET20b at Ndel and NotI sites. pET45b His-Runx1 was obtained by PCR of activated human CD4 T cells obtained from healthy volunteers (after the signature of an informed consent) using the primers Upper Runx1 atgcgtatccccgtagatg (SEQ ID NO: 57) and Lower Runx1 […] (SEQ ID NO: 58) and the fragment was cloned in pcDNA3.1. Then, pET45b and pcDNA3.1-Runx1 were digested with BamHI and NotI and ligated to obtain pET45b-Runx1. Plasmids were used to transform BL21 cells (DE3; Novagen, Schwalbach, Germany) for the expression of the recombinant protein. The transformed BL21 cells were grown in LB medium at 37° C. (1 liter of final culture medium) (with ampicilin 0.1 mg/ml). Once the OD of the culture was between 0.5 and 1.0, IPTG (0.4 mM, final concentration) was added. Bacteria were then cultured overnight in agitation and centrifuged for 10 min at 8000 rpm. Cell pellet was then resuspended in 4 ml Tris-HCl 0.1 M and frozen at −80° C. Cell pellet was then thawed and incubated with lisozyme (25 KU) and a protease inhibitor cocktail for 15 min at 30° C. before cell lysis induced with a French-press. The resultant pool was then centrifuged during 20 min at 11.000 rpm). The recombinant protein was purified from the soluble fraction of French-press cell extracts by affinity chromatography (Histrap, Pharmacia) following manufacturer's instructions and using an FPLC platform (AKTA, Pharmacia). Plasmid pDEST15-FOXP3 encoding the fusion protein GST-FOXP3 (GST fused to the isoform A from human FOXP3 gene), was transformed into BL21 cells for the expression of the recombinant protein. GST-FOXP3 protein was purified from the soluble fraction of cell extracts obtained, as described above, by affinity chromatography (GSTrap; Amersham, Piscataway, N.J.) using a fast protein liquid chromatography platform (AKTA; Amersham) following manufacturer's instructions. The eluted proteins were desalted using Hitrap desalting columns (Pharmacia) and analyzed by SDS-PAGE using Coomassie blue (Bio-Safe Coomassie reagent; Bio-Rad, Hercules, Calif.) and by Western blot.
It has been described that dimerization of FOXP3 is required for its function as a transcriptional regulator. Moreover, interaction between FOXP3 and the transcription factor Runx1, is crucially required for normal hematopoiesis including thymic T-cell development, but also for Treg suppressor activity (Reviewed in Lozano et al, Front Oncol. 2013, 3:294). Both activities are mediated by the intermediate region of Foxp3, which is the area of interaction between P60 and Foxp3. Thus, we studied the effect of P60 and their mutants on the FOXP3/Runx1 heterodimerization, as well as FOXP3/FOXP3 homodimerization by Alphascreen technology according to the manufacturer's instructions (Perkin Elmer, Benelux). AlphaScreen™ is a bead-based technology that is designed to measure the proximity of donor and acceptor beads conjugated to biomolecules of interest.
To measure Foxp3-Runx1 interactions, Foxp3-GST and […] proteins were used.
Recombinant Runx1 expressed in E. Coli with a hexa-histidine tag (obtained as disclosed in section (1) above) was captured by nickel chelate acceptor beads following manufacturer's instructions, whereas the recombinant FOXP3 expressed with a GST tag was captured by glutathione donor beads (Perkin Elmer) following manufacturer's instructions. His-tagged Runx1 (46 nM final concentration) was incubated with 100 nM GST-FOXP3 and the peptides to be tested (added at different concentrations from 1 to 100 μM) for 1 h at room temperature. […]

By inhibition is commonly meant the share of the control response that was lost under treatment. For the compound `CSCC[C@H](NC(=O)[C@H](CCCCN)NC(=O)[C@H](CCCNC(=N)N)NC(=O)[C@H](Cc1ccccc1)NC(=O)[C@H](CO)NC(=O)[C@H](CCC(N)=O)NC(=O)[C@H](Cc1ccccc1)NC(=O)[C@H](C)NC(=O)[C@@H](N)CCCNC(=N)N)C(=O)N[C@@H](Cc1c[nH]c2ccccc12)C(=O)N1CCC[C@H]1C(=O)N[C@@H](Cc1ccccc1)C(=O)N[C@@H](Cc1ccccc1)C(=O)N[C@@H](C)C(=O)N[C@H](CCSC)C(=O)O` [compound 47] (H-RAFQSFRKMWPFFA[dM]-OH; N-terminus and C-terminus assumed), the “Binding to Foxp3 Ratio binding Peptide/p60 (fold change)” value in assay [1] came to 1.7 fold change. Further, the inhibition at 2.5 µM in assay [2] was 75%.

As for H-RDFQSFRKMWPFFAM-OH [compound 1], the “Binding to Foxp3 Ratio binding Peptide/p60 (fold change)” value in assay [1] amounted to 1.0 fold change. The inhibition at 100 µM in assay [2] (read-out: Foxp3-Runx1 Inhibition % inhibition (100 μM)) amounted to 54.5%.

For `CSCC[C@@H]1NC(=O)[C@H](C)NC(=O)[C@H](Cc2ccccc2)NC(=O)[C@H](Cc2ccccc2)NC(=O)[C@@H]2CCCN2C(=O)[C@H](Cc2c[nH]c3ccccc23)NC(=O)[C@H](CCSC)NC(=O)[C@H](CCCCN)NC(=O)[C@H](CCCNC(=N)N)NC(=O)[C@H](Cc2ccccc2)NC(=O)[C@H](C)NC(=O)[C@H](CCC(N)=O)NC(=O)[C@H](Cc2ccccc2)NC(=O)[C@H](C)NC(=O)[C@H](CCCNC(=N)N)NC1=O` [compound 50] (cyclo(RAFQAFRKMWPFFAM)), the inhibition at 2.5 µM in assay [2] is 60%.

In the case of `CSCC[C@H](NC(=O)[C@H](CCCCN)NC(=O)[C@H](CCCNC(=N)N)NC(=O)[C@H](Cc1ccccc1)NC(=O)[C@H](CO)NC(=O)[C@H](CCC(N)=O)NC(=O)[C@H](Cc1ccccc1)NC(=O)[C@H](C)NC(=O)[C@H](N)CCCNC(=N)N)C(=O)N[C@@H](Cc1c[nH]c2ccccc12)C(=O)N1CCC[C@H]1C(=O)N[C@@H](Cc1ccccc1)C(=O)N[C@@H](Cc1ccccc1)C(=O)N[C@@H](C)C(=O)N[C@H](CCSC)C(=O)O` [compound 48] (H-[dR]AFQSFRKMWPFFA[dM]-OH; N-terminus and C-terminus assumed), the “Binding to Foxp3 Ratio binding Peptide/p60 (fold change)” value in assay [1] is listed as 2.5 fold change. Also, the inhibition at 2.5 µM in assay [2] was 70%.

For `CSCC[C@H](NC(=O)[C@H](C)NC(=O)[C@H](Cc1ccccc1)NC(=O)[C@H](Cc1ccccc1)NC(=O)[C@@H]1CCCN1C(=O)[C@H](Cc1c[nH]c2ccccc12)NC(=O)[C@H](CCSC)NC(=O)[C@H](CCCCN)NC(=O)[C@H](CCCNC(=N)N)NC(=O)[C@H](Cc1ccccc1)NC(=O)[C@H](CO)NC(=O)[C@H](CCC(N)=O)NC(=O)[C@H](Cc1ccccc1)NC(=O)[C@H](C)NC(=O)[C@H](N)CCCNC(=N)N)C(=O)O` [compound 46] (H-[dR]AFQSFRKMWPFFAM-OH; N-terminus and C-terminus assumed), in assay [1], the “Binding to Foxp3 Ratio binding Peptide/p60 (fold change)” value is given as 2.7 fold change. The inhibition at 2.5 µM in assay [2] turned out to be 95%.

For the compound `CSCC[C@H](NC(=O)[C@H](C)NC(=O)[C@H](Cc1ccccc1)NC(=O)[C@H](Cc1ccccc1)NC(=O)[C@@H]1CCCN1C(=O)[C@H](Cc1c[nH]c2ccccc12)NC(=O)[C@H](CCSC)NC(=O)[C@H](CCCCN)NC(=O)[C@H](CCCNC(=N)N)NC(=O)[C@H](Cc1ccccc1)NC(=O)[C@H](CO)NC(=O)[C@H](CCC(N)=O)NC(=O)[C@H](Cc1ccccc1)NC(=O)[C@@H](CC(=O)O)NC(=O)[C@@H](N)CCCNC(=N)N)C(=O)O` [compound 3] (H-R[dD]FQSFRKMWPFFAM-OH), in assay [1], the “Binding to Foxp3 Ratio binding Peptide/p60 (fold change)” value is recorded as 2.8 fold change.
